Results taken from US8329721B2, “Hydroxy and alkoxy substituted 1H-imidazonaphthyridines and methods” (3M Innovative Properties Company, priority 2006, dated 2012).

Row | Compound | melting point
1 | CCOc1nc2c(N)nc3cccnc3c2n1CC1CCOCC1 [Example 3, 2-Ethoxy-1-(tetrahydro-2H-pyran-4-ylmethyl)-1H-imidazo[4,5-c][1,5]naphthyridin-4-amine] | 197 to 200 °C
2 | Nc1nc2cccnc2c2c1nc(O)n2Cc1ccccc1 [Example 2, 4-Amino-1-benzyl-1H-imidazo[4,5-c][1,5]naphthyridin-2-ol] | > 250 °C
3 | Nc1nc2cccnc2c2c1nc(O)n2CC1CCOCC1 [Example 4, 4-Amino-1-(tetrahydro-2H-pyran-4-ylmethyl)-1H-imidazo[4,5-c][1,5]naphthyridin-2-ol] | 250 to 260 °C

Continued, values first:

Row | melting point | Compound
4 | 187 to 190 °C | CCOc1nc2c(N)nc3cccnc3c2n1[C@@H](C)c1ccccc1 [Example 5, 2-Ethoxy-1-[(1S)-1-phenylethyl]-1H-imidazo[4,5-c][1,5]naphthyridin-4-amine]
5 | 241 to 243 °C | C[C@@H](c1ccccc1)n1c(O)nc2c(N)nc3cccnc3c21 [Example 6, 4-amino-1-[(1S)-1-phenylethyl]-1H-imidazo[4,5-c][1,5]naphthyridin-2-ol]
